Measurements published in patent publication US12448400B2, “KRAS G12D modulating compounds” (priority 2023, dated 2025).
Read-outs that look alike come from different tables or passages of the source.

Columns and labels:
GDP-loaded KRAS G12D = GDP-loaded KRAS G12D (Homo sapiens, UniProt P01116, G12D); assay: KRAS G12D (GDP) biochemical assay, TR-FRET probe displacement; assay type: binding; settings: 0.5 nM enzyme, 30 min pre-incubation, 2 h incubation, TR-FRET ratio; read-out: G12D IC50
Procedure: Example A. KRAS G12D (GDP) Biochemical Assay
Compounds were tested for binding to GDP-loaded KRAS G12D in a 384-well assay format using a TR-FRET probe displacement assay in buffer consisting of 50 mM Hepes (pH 7.4), 150 mM NaCl, 5 mM MgCl2 and 0.005% Tween-20. […] Compounds were serially diluted (1:3) in DMSO. The LabCyte ECHO Acoustic dispenser system was used to pre-spot the assay plates (384-well Non-Binding Surface plates, Corning, Catalog #3824) with 50 nL of compound. The compounds were pre-incubated with 5 μL of 2× final enzyme concentration for 30 minutes before adding 5 μL of 2× final concentration of Eu-streptavidin and TR-FRET probe (10 μL final reaction volume). The plates were incubated at room temperature for 2 hours before measuring TR-FRET ratio on the Envision plate reader. IC50 values were defined as the compound concentration that causes a 50% decrease in TR-FRET ratio and were calculated using a sigmoidal dose-response model to generate curve fits.

[1] = Mouse oral cassette pharmacokinetics; assay type: in vivo, male CD-1 mice
Procedure: Mouse Oral Cassette Pharmacokinetics
Test compounds (1-3 compounds per cassette) were formulated in solution formulations (10 w/v % Captisol in 50 mM Citrate buffer) and administered orally at 30 mg-eq./kg each compound to a group of four male CD-1 mice. The test articles were administrated by oral gavage at a dose volume of 10 mL-eq/kg.
Blood samples were collected at 0.5, 1, 3, 6, 8, and 24 hours post dose into K2EDTA tubes and stored on wet ice until processed. Whole blood was processed to plasma by centrifugation (3500 rpm for 10 minutes at 5° C.) within 30 minutes of collection. Plasma samples were placed in Micronic 96 well tubes and stored at −80° C. until transferred. Plasma concentration of the test compounds was determined by LC-MS/MS. Pharmacokinetic parameters were estimated using non-compartment model analysis. The maximum observed concentration (Cmax) and area under the curve from time of dosing to last measured concentration (AUClast) were calculated and reported.

GP2D (KRAS G12D) cells = assay: 2D cell viability assay (CellTiter-Glo); assay type: cell-based; settings: GP2D cells, 4 days, CellTiter-Glo luminescence, read-out: G12D 2D EC50
How it was run: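 Viability was read by CellTiter-Glo after 4 days at 37 °C of 2D culture of KRAS G12D GP2D cells (1000/well, RPMI, 10% FBS) on pre-spotted threefold compound dilutions. EC50 was fitted with a sigmoidal dose-response model as the point of half-maximal luminescence loss.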

[2] = male, CD-1, mouse, in vivo, po, 30 mg/kg
[3] = oral gavage, 30 mg-eq./kg each compound, cassette, plasma, AUClast of parent

Compound	IC50 (GDP-loaded KRAS G12D) [nM]	Mouse Parent AUC [1, 2] [µM·h]	EC50 (GP2D (KRAS G12D) cells; 96 h) [nM]	Mouse Parent AUC [1, 3] [µM·h]	EC50 (GP2D (KRAS G12D) cells) [nM]
C#Cc1c(F)ccc2cc(O)cc(-c3nc4c5c(nc(OC[C@@]67CCCN6C[C@H](F)C7)nc5c3F)N3C[C@H]5CC[C@@H]([C@H]3CC[C@H]4C)N5Cc3oc(=O)oc3C(C)(C)C)c12 [Example 12, 4-(tert-butyl)-5-(((4R,6aR,7S,10R)-2-(8-ethynyl-7-fluoro-3-hydroxynaphthalen-1-yl)-1-fluoro-13-(((2R,7aS)-2-fluorotetrahydro-1H-pyrrolizin-7a(5H)-yl)methoxy)-4-methyl-5,6,6a,7,8,9,10,11-octahydro-4H-3,11a,12,14,15-pentaaza-7,10-methanocyclohepta[4,5]cycloocta[1,2,3-de]naphthalen-15-yl)methyl)-1,3-dioxol-2-one]	73	0.2	0.28	–	–
C#Cc1c(F)ccc2cc(O)cc(-c3nc4c5c(nc(OC[C@@]67CCCN6C[C@H](F)C7)nc5c3F)N3C[C@H]5CC[C@@H]([C@H]3CCC4)N5Cc3oc(=O)oc3C)c12 [Example 8, 4-(((6aR,7S,10R)-2-(8-ethynyl-7-fluoro-3-hydroxynaphthalen-1-yl)-1-fluoro-13-(((2R,7aS)-2-fluorotetrahydro-1H-pyrrolizin-7a(5H)-yl)methoxy)-5,6,6a,7,8,9,10,11-octahydro-4H-3,11a,12,14,15-pentaaza-7,10-methanocyclohepta[4,5]cycloocta[1,2,3-de]naphthalen-15-yl)methyl)-5-methyl-1,3-dioxol-2-one]	4.8	1.1	0.49	–	–
C#Cc1c(F)ccc2cc(O)cc(-c3nc4c5c(nc(OC[C@@]67CCCN6C[C@H](F)C7)nc5c3F)N3C[C@H]5CC[C@@H]([C@H]3CCC4)N5Cc3oc(=O)oc3CCCCCCCC)c12 [Example 10, 4-(((6aR,7S,10R)-2-(8-ethynyl-7-fluoro-3-hydroxynaphthalen-1-yl)-1-fluoro-13-(((2R,7aS)-2-fluorotetrahydro-1H-pyrrolizin-7a(5H)-yl)methoxy)-5,6,6a,7,8,9,10,11-octahydro-4H-3,11a,12,14,15-pentaaza-7,10-methanocyclohepta[4,5]cycloocta[1,2,3-de]naphthalen-15-yl)methyl)-5-octyl-1,3-dioxol-2-one]	7.8	0.44	0.16	–	–
4-(((1S,4R,11R,14aR)-11-(8-ethynyl-7-fluoro-3-hydroxynaphthalen-1-yl)-10,12-difluoro-8-(((2R,7aS)-2-fluorotetrahydro-1H-pyrrolizin-7a(5H)-yl)methoxy)-1,2,3,4,5,13,14,14a-octahydro-1,4-epiminoazepino[1′,2′:1,71azepino[2,3,4-de]quinazolin-15-yl)methyl)-5-methyl-1,3-dioxol-2-one [Example 37]	1	–	–	0.13	0.23
C#Cc1c(F)ccc2cc(O)cc(-c3nc4c5c(nc(OC[C@@]67CCCN6C[C@H](F)C7)nc5c3F)N3C[C@H]5CC[C@@H]([C@H]3CC[C@H]4C)N5Cc3oc(=O)oc3C3CCCCC3)c12 [Example 17, 4-cyclohexyl-5-(((4R,6aR,7S,10R)-2-(8-ethynyl-7-fluoro-3-hydroxynaphthalen-1-yl)-1-fluoro-13-(((2R,7aS)-2-fluorotetrahydro-1H-pyrrolizin-7a(5H)-yl)methoxy)-4-methyl-5,6,6a,7,8,9,10,11-octahydro-4H-3,11a,12,14,15-pentaaza-7,10-methanocyclohepta[4,5]cycloocta[1,2,3-de]naphthalen-15-yl)methyl)-1,3-dioxol-2-one]	48	0.161	0.2	–	–
C#Cc1c(F)ccc2cc(O)cc(-c3nc4c5c(nc(OC[C@@]67CCCN6C[C@H](F)C7)nc5c3F)N3C[C@H]5CC[C@@H]([C@H]3CC[C@H]4C)N5Cc3oc(=O)oc3CCCCCC)c12 [Example 16, 4-(((4R,6aR,7S,10R)-2-(8-ethynyl-7-fluoro-3-hydroxynaphthalen-1-yl)-1-fluoro-13-(((2R,7aS)-2-fluorotetrahydro-1H-pyrrolizin-7a(5H)-yl)methoxy)-4-methyl-5,6,6a,7,8,9,10,11-octahydro-4H-3,11a,12,14,15-pentaaza-7,10-methanocyclohepta[4,5]cycloocta[1,2,3-de]naphthalen-15-yl)methyl)-5-hexyl-1,3-dioxol-2-one]	40	0.95	0.16	–	–
C#Cc1c(F)ccc2cccc(-c3nc4c5c(nc(OC[C@@]67CCCN6C[C@H](F)C7)nc5c3F)N3C[C@H]5CC[C@@H]([C@H]3CCC4)N5Cc3oc(=O)oc3C)c12 [Example 1, 4-(((6aR,7S,10R)-2-(8-ethynyl-7-fluoronaphthalen-1-yl)-1-fluoro-13-(((2R,7aS)-2-fluorotetrahydro-1H-pyrrolizin-7a(5H)-yl)methoxy)-5,6,6a,7,8,9,10,11-octahydro-4H-3,11a,12,14,15-pentaaza-7,10-methanocyclohepta[4,5]cycloocta[1,2,3-de]naphthalen-15-yl)methyl)-5-methyl-1,3-dioxol-2-one]	2.5	3.6	5.8	–	–
C#Cc1c(F)ccc2cc(O)cc(-c3nc4c5c(nc(OC[C@@]67CCCN6C[C@H](F)C7)nc5c3F)N3C[C@H]5CC[C@@H]([C@H]3CCC4)N5Cc3oc(=O)oc3C(C)(C)C)c12 [Example 9, 4-(tert-butyl)-5-(((6aR,7S,10R)-2-(8-ethynyl-7-fluoro-3-hydroxynaphthalen-1-yl)-1-fluoro-13-(((2R,7aS)-2-fluorotetrahydro-1H-pyrrolizin-7a(5H)-yl)methoxy)-5,6,6a,7,8,9,10,11-octahydro-4H-3,11a,12,14,15-pentaaza-7,10-methanocyclohepta[4,5]cycloocta[1,2,3-de]naphthalen-15-yl)methyl)-1,3-dioxol-2-one]	12	0.16	1.9	–	–
C#Cc1c(F)ccc2cc(O)cc(-c3nc4c5c(nc(OC[C@@]67CCCN6C[C@H](F)C7)nc5c3F)N3C[C@H]5CC[C@@H]([C@H]3CC[C@H]4C)N5Cc3oc(=O)oc3CCCCCCCC)c12 [Example 13, 4-(((4R,6aR,7S,10R)-2-(8-ethynyl-7-fluoro-3-hydroxynaphthalen-1-yl)-1-fluoro-13-(((2R,7aS)-2-fluorotetrahydro-1H-pyrrolizin-7a(5H)-yl)methoxy)-4-methyl-5,6,6a,7,8,9,10,11-octahydro-4H-3,11a,12,14,15-pentaaza-7,10-methanocyclohepta[4,5]cycloocta[1,2,3-de]naphthalen-15-yl)methyl)-5-octyl-1,3-dioxol-2-one]	24	0.42	0.19	–	–
C#Cc1c(F)ccc2cc(OC(=O)C(C)C)cc(-c3nc4c5c(nc(OC[C@@]67CCCN6C[C@H](F)C7)nc5c3F)N3C[C@H]5CC[C@@H]([C@H]3CCC4)N5Cc3oc(=O)oc3C)c12 [Example 30, 5-ethynyl-6-fluoro-4-((6aR,7S,10R)-1-fluoro-13-(((2R,7aS)-2-fluorotetrahydro-1H-pyrrolizin-7a(5H)-yl)methoxy)-15-((5-methyl-2-oxo-1,3-dioxol-4-yl)methyl)-5,6,6a,7,8,9,10,11-octahydro-4H-3,11a,12,14,15-pentaaza-7,10-methanocyclohepta[4,5]cycloocta[1,2,3-de]naphthalen-2-yl)naphthalen-2-yl isobutyrate]	–	0.66	0.22	–	–
C#Cc1c(F)ccc2cc(O)cc(-c3c(F)c4c5c(nc(OCC67CCCN6CC(F)C7)nc5c3F)N3CC5CCC(C3CCC4)N5Cc3oc(=O)oc3C)c12 [Example 28, 4-(((1S,4R,11R,15aR)-11-(8-ethynyl-7-fluoro-3-hydroxynaphthalen-1-yl)-10,12-difluoro-8-(((2R,7aS)-2-fluorotetrahydro-1H-pyrrolizin-7a(5H)-yl)methoxy)-2,3,4,5,13,14,15,15a-octahydro-1H-1,4-epiminoazepino[1′,2′:1,8]azocino[2,3,4-de]quinazolin-16-yl)methyl)-5-methyl-1,3-dioxol-2-one]	–	–	–	0.7	0.18
